Values after ≈ are worked out from the molar mass of the structure shown.
tested on: not listed separately; assay: Liver microsomal stability test, human; assay type: in vitro ADME; conditions: Human liver microsomes, 0.5 mg/mL protein, 37° C., NADPH
Procedure: (§1) • 1: Add 10 μL of working solutions of test product or reference product and 80 μL of microsomal working solution (liver microsomal protein concentration of 0.5 mg/mL) to wells of TO, T5, T10, T20, T30, T60, and NCF60, and only microsomal working solution is added to the Blank60 wells. Then the samples of Blank60, T10, T20, T30 and T60, except for TO and NCF60, are placed in a water bath set at 37° C. and incubate for approximately 10 mins; • 2: Add 300 μL of termination solution (acetonitrile solution containing 200 ng/mL tolbutamide and 200 ng/mL labetalol) to Sample TO, followed by 10 ul of NADPH regeneration system working solution; • 3: After incubation of Blank60, T5, T10, T20, T30 and T60 on incubation plates, add 10 μL of NADPH regeneration system working solution to each sample well to start the reaction, and 10 uL of 100 mM potassium phosphate buffer is add to the NCF60 sample wells; • 4: After incubation for appropriate times (e.g., 5, 10, 20, 30 and 60 mins), 300 μL of termination solution is add to each sample well of test product and reference product on Blank60, T5, T10, T20, T30, T60 and NCF60 plates, respectively, to terminate the reaction. • 5: All sample plates are shaken well and centrifuged at 4000 rpm for 20 min, take 100 μL of the supernatant of the test product or reference product, dilute in 300 μL of pure water for LC-MS/MS analysis, respectively. • 6: Data analysis, T½ and CLint(mic) (μL/min/mg) values are calculated based on the first-order elimination kinetics, and the equations of first-order elimination kinetics are: […]

| Compound | CLint scaled | half-life |
| --- | --- | --- |
| Cc1cc(-c2ccccc2)c(C(=O)C(=O)Nc2ccc3c(c2)OCC2CN(c4ncc(C(F)(F)F)cn4)CCN32)n1C (stereo not shown) [Example 9] | 52.9 mL/min/kg | 23.6 min |

same assay, conditions: Human liver microsomes, 60 min

| Compound | Remaining, (T = 60 min) |
| --- | --- |
| Cc1cc(-c2ccccc2)c(C(=O)C(=O)Nc2ccc3c(c2)OCC2CN(c4ncc(C(F)(F)F)cn4)CCN32)n1C (stereo not shown) [Example 9] | 16.5% |

tested on: Aspergillus fumigatus (ATCC MYA-4609/AF293/CBS 101355); assay: Measurement of minimum inhibitory concentration (MIC), AF293; assay type: cell-based; conditions: Aspergillus fumigatus AF293, 35° C., 48 hours, RPMI1640
Procedure: New streaks are made with glycerol stock solution of the strains of Aspergillus fumigatus (ATCC MYA-4609/AF 293/CBS 101355) on Sabouraud's dextrose agar (SDA), incubate at 35° C. and a humidity of 40-70% for 72 hours. Other strains are processed as the same as AF293.
RPMI1640: one packet of RPMI1640 powder is dissolved in 1 L purified water and mixed well, add 0.165M MOPS, adjust the pH to 7.0, sterilize by filtration with 0.22 um membrane, and store at 4° C. for no more than 3 months.
Physiological saline: weigh 9 g of sodium chloride powder and dissolve in 1 L of purified water, and mixed well. Sterilize at 121° C. for 30 min, store at room temperature (RT) for no more than 1 week.
Dissolve the test compound and stock solution of one control compound with DMSO and obtain solutions at a concentration of 12.8 mg/mL
The maximum concentration of each compound is 0.8 mg/mL (e.g., 150 μL of dimethyl sulfoxide+10 uL of 12.8 mg/mL compound/control). Column 1 is filled with 40 μL of compound and columns 2 to 11 with 20 μL of dimethyl sulfoxide. Transfer 20 μL of compound from column 1 to column 2 to dilute the concentration. Repeat the above steps up to column 11 to give 2× serial dilutions.
2 μL of the above 2× serial dilutions are injected into each hole of the corresponding test plate using a multichannel pipette.
Drop 5 ml of saline on the Aspergillus fumigatus SDA plate. The spores were carefully wiped off from the surface of the plate with an L-shaped coating rod. Then the suspension is transferred into a sterile tube. After shaking, let the tube stand for 5 to 10 minutes. Count the number of spores in the upper suspension with a hemocytometer and check the purity. Adjust the inoculum concentration to 0.2-2.5×10^4 spores/mL.
Inject 198 μL of diluted inoculum into each holes of the corresponding test plate using a multichannel pipette.
Incubate at 35° C. for 48 hours.
To facilitate scoring of the presence or absence of growth on the wall, a magnifying glass is used. The tested 96-well microplates were photographed and the optical density at 530 nm is read with an enzyme marker (Tecan Spark).

| Compound | AF293: MIC |
| --- | --- |
| Cc1cc(-c2ccccc2)c(C(=O)C(=O)Nc2ccc3c(c2)CC2CCN(c4ncc(F)cn4)CCN32)n1C (stereo not shown) [2 (T-2-b), 2-(1,5-dimethyl-3-phenyl-1H-pyrrol-2-yl)-N-(3-(5-fluoropyrimidin-2-yl)-2,3,4,5,11,11a-hexahydro-1H-[1,4]diaza[1,7-a]indol-9-yl)-2-oxoacetamide] | 0.06 µg/mL |
| Cc1cc(-c2ccccc2)c(C(=O)C(=O)Nc2ccc3c(c2)COCC2CN(c4ncc(F)cn4)CCN32)n1C (stereo not shown) [Example 18, 2-(1,5-dimethyl-3-phenyl-1H-pyrrol-2-yl)-N-(3-(5-fluoropyrimidin-2-yl)-1,2,3,4,4a,5-hexahydro-7H-benzo[e]pyrazino[2,1-c] [1,4]oxazolin-9-yl)-2-oxoacetamide] | 0.03 µg/mL |
| Cc1cc(-c2ccccc2)c(C(=O)C(=O)Nc2ccc3c(c2)OCC2CN(c4ncc(C#N)cn4)CCN32)n1C (stereo not shown) [Example 7, N-(3-(5-cyanopyrimidin-2-yl)-1,2,3,4,4a,5-hexahydrobenzo[b]pyrazino[1,2-d] [1,4]oxazin-8-yl)-2-(1,5-dimethyl-3-phenyl-1H-pyrrol-2-yl)-2-oxyacetamide] | 0.06 µg/mL |
| Cc1cc(-c2ccccc2)c(C(=O)C(=O)Nc2ccc3c(c2)CN(C)CC2CN(c4ncc(F)cn4)CCN32)n1C (stereo not shown) [Example 31] | 1 µg/mL |
| Cc1cc(-c2ccccc2)c(C(=O)C(=O)Nc2ccc3c(c2)OCC2CN(c4ncn(C)n4)CCN32)n1C (stereo not shown) [Example 17] | 1 µg/mL |
| Cc1cc(-c2ccccc2)c(C(=O)C(=O)Nc2ccc3c(c2)CC2CN(c4ncc(F)cn4)CCCN32)n1C (stereo not shown) [2 (T-2-a), 2-(1,5-dimethyl-3-phenyl-1H-pyrrol-2-yl)-N-(2-(5-fluoropyrimidin-2-yl)-2,3,4,5,11,11a-hexahydro-1H-[1,4]diaza[1,2-a]indol-9-yl)-2-oxoacetamide] | 0.06 µg/mL |

same assay, conditions: Aspergillus fumigatus, CBS101355, 48 h, read-out: AF293: MIC, Aspergillus fumigatus AF293, 35° C., 48 hours, RPMI1640

| Compound | MIC |
| --- | --- |
| Cc1cc(-c2ccccc2)c(C(=O)C(=O)Nc2cc(F)c3c(c2)OC[C@H]2CN(c4ncc(F)cn4)CCN32)n1C [Example 25, (R)-2-(1,5-dimethyl-3-phenyl-1H-pyrrol-2-yl)-N-(10-fluoro-3-(5-fluoropyrimidin-2-yl)-1,2,3,4,4a,5-hexahydrobenzo[b]pyrazino[1,2-d] [1,4]oxazin-8-yl)-2-oxoacetamide] | 0.06 µg/mL (≈ 0.11 µM) |

same assay, conditions: CBS101355; Aspergillus fumigatus AF293, 35° C., 48 hours, RPMI1640; read-out: AF293: MIC

| Compound | MIC |
| --- | --- |
| Cc1cc(-c2ccccc2)c(C(=O)C(=O)Nc2ccc3c(c2)OCC2CN(c4ccc(F)nn4)CCN32)n1C (stereo not shown) [Example 13] | 0.25 µg/mL (≈ 0.475 µM) |
| Cc1cc(-c2ccccc2)c(C(=O)C(=O)Nc2ccc3c(c2)COC[C@H]2CN(c4ncc(F)cn4)CCN32)n1C [Example 26] | 0.03 µg/mL (≈ 0.0555 µM) |
| Cc1cc(-c2cccc(F)c2)c(C(=O)C(=O)Nc2ccc3c(c2)OC[C@H]2CN(c4ncc(F)cn4)CCN32)n1C [Example 36, (R)-2-(3-(3-fluorophenyl)-1,5-dimethyl-1H-pyrrol-2-yl)-N-(3-(5-fluoropyrimidin-2-yl)-1,2,3,4,4a,5-hexahydrobenzo[b]pyrazino[1,2-d] [1,4]oxazin-8-yl)-2-oxoacetamide] | 0.016 µg/mL (≈ 0.0294 µM) |
| Cc1cc(-c2ccccc2)c(C(=O)C(=O)Nc2ccc3c(c2)OCC2CN(c4nccc(Cl)n4)CCN32)n1C (stereo not shown) [Example 10] | 0.06 µg/mL (≈ 0.11 µM) |
| Cc1cc(-c2ccccc2)c(C(=O)C(=O)Nc2ccc3c(c2)OCC2CN(c4ccc(F)cn4)CCN32)n1C (stereo not shown) [Example 14] | 0.06 µg/mL (≈ 0.114 µM) |
| COc1cnc(N2CCN3c4ccc(NC(=O)C(=O)c5c(-c6ccccc6)cc(C)n5C)cc4OCC3C2)nc1 (stereo not shown) [Example 8] | 0.03 µg/mL (≈ 0.0557 µM) |
| Cc1cc(-c2ccccc2)c(C(=O)C(=O)Nc2cnc3c(c2)OCC2CN(c4ncc(F)cn4)CCN32)n1C (stereo not shown) [Example 22, 2-(1,5-dimethyl-3-phenyl-1H-pyrrol-2-yl)-N-(8-(5-fluoropyrimidin-2-yl)-6,6a,7,8,9,10-hexahydropyrazino[1,2-d]pyrido[3,2-b] [1,4]oxazin-3-yl)-2-oxoacetamide] | 0.13 µg/mL (≈ 0.246 µM) |
| Cc1cc(-c2ccccc2)c(C(=O)C(=O)Nc2ccc3c(c2)OCC2CN(c4ncc(C(F)(F)F)cn4)CCN32)n1C (stereo not shown) [Example 9] | 0.06 µg/mL (≈ 0.104 µM) |
| Cc1cc(-c2ccccc2)c(C(=O)C(=O)Nc2ccc3c(c2)OCC2CN(c4ccnc(Cl)n4)CCN32)n1C (stereo not shown) [Example 11] | 0.5 µg/mL (≈ 0.921 µM) |
| Cc1cc(-c2ccc(F)cc2)c(C(=O)C(=O)Nc2ccc3c(c2)OC[C@H]2CN(c4ncc(F)cn4)CCN32)n1C [Example 37, (R)-2-(3-(4-fluorophenyl)-1,5-dimethyl-1H-pyrrol-2-yl)-N-(3-(5-fluoropyrimidin-2-yl)-1,2,3,4,4a,5-hexahydrobenzo[b]pyrazino[1,2-d] [1,4]oxazin-8-yl)-2-oxoacetamide] | 0.016 µg/mL (≈ 0.0294 µM) |
| Cc1cc(-c2ccccc2)c(C(=O)C(=O)Nc2ccc3c(c2)OCC2CN(c4ncc(C#N)s4)CCN32)n1C (stereo not shown) [Example 12] | 0.13 µg/mL (≈ 0.241 µM) |
| Cc1cc(-c2ccccc2)c(C(=O)C(=O)Nc2ccc3c(c2)COC[C@@H]2CN(c4ncc(F)cn4)CCN32)n1C [Example 27] | 0.03 µg/mL (≈ 0.0555 µM) |
| Cc1cc(-c2ccccc2)c(C(=O)C(=O)Nc2ccc3c(c2)OC[C@H]2CN(c4ncncn4)CCN32)n1C [Example 28, (R)—N-(3-(1,3,5-triazin-2-yl)-1,2,3,4,4a,5-hexahydrobenzo[b]pyrazino[1,2-d] [1,4]oxazin-8-yl)-2-(1,5-dimethyl-3-phenyl-1H-pyrrol-2-yl)-2-oxoacetamide] | 0.25 µg/mL (≈ 0.491 µM) |
| Cc1cc(-c2ccccc2)c(C(=O)C(=O)Nc2ccc3c(c2)OC[C@H]2CN(c4ncc(N5CCOCC5)cn4)CCN32)n1C [Example 24, (R)-2-(1,5-dimethyl-3-phenyl-1H-pyrrol-2-yl)-N-(3-(5-morpholinopyrimidin-2-yl)-1,2,3,4,4a,5-hexahydrobenzo[b]pyrazino[1,2-d] [1,4]oxazin-8-yl)-2-oxoacetamide] | 0.13 µg/mL (≈ 0.219 µM) |
| Cc1cc(-c2ccccc2)c(C(=O)C(=O)Nc2ccc3c(c2)OC[C@H]2CN(c4ncc(N5CCC5)cn4)CCN32)n1C [Example 23, (R)—N-(3-(5-(azetidin-1-yl)pyrimidin-2-yl)-1,2,3,4,4a,5-hexahydrobenzo[b]pyrazino[1,2-d] [1,4]oxazin-8-yl)-2-(1,5-dimethyl-3-phenyl-1H-pyrrol-2-yl)-2-oxoacetamide] | 0.13 µg/mL (≈ 0.231 µM) |

tested on: not listed separately; assay: Liver microsomal stability test, mouse; assay type: in vitro ADME; conditions: Mouse liver microsomes, 0.5 mg/mL protein, 37° C., NADPH
Procedure: as §1

| Compound | CLint scaled | half-life |
| --- | --- | --- |
| Cc1cc(-c2ccccc2)c(C(=O)C(=O)Nc2ccc3c(c2)OCC2CN(c4ncc(C(F)(F)F)cn4)CCN32)n1C (stereo not shown) [Example 9] | 81.1 mL/min/kg | 30.7 min |

same assay, conditions: Mouse liver microsomes, 60 min

| Compound | Remaining, (T = 60 min) |
| --- | --- |
| Cc1cc(-c2ccccc2)c(C(=O)C(=O)Nc2ccc3c(c2)OCC2CN(c4ncc(C(F)(F)F)cn4)CCN32)n1C (stereo not shown) [Example 9] | 24.0% |

Source: patent US20240327423A1, “A SERIES OF PYRROLE DERIVATIVES AND THEIR PREPARATION METHOD AND THERAPEUTIC USE” (SHENZHEN SUNGENING BIO-MEDICAL CO., LTD, priority 2020, published 2024)
